# In patent publication US4081548A, “Antibiotics” (Merck & Co., Inc., priority 1976, dated 1978):
# How the values were obtained:
# Type in all cases: cell-based
# Bacillus subtilis 964 = experiment: Bauer-Kirby disc diffusion (2 mm agar depth), zone of inhibition, Table 1; details: preparation III, 6.6 μg antibiotic/disc, strain resistance: --, read-out: diameter of the zone of inhibition
# Text: (§1) Thienamycin is further characterized by the following antibiotic spectrum profile. The test employs the Bauer-Kirby disc diffusion method modified only in respect to the 2 mm. agar depth employed here.
# [1] = tested on: Enterobacter cloacae 2646; experiment: as above; details: preparation III, 6.6 μg antibiotic/disc, strain resistance: P, C (penicillins, cephalosporins), read-out: diameter of the zone of inhibition
# Text: as §1
# [2] = tested on: Enterobacter cloacae 2647; experiment: as above; details: preparation III, 6.6 μg antibiotic/disc, strain resistance: --, read-out: diameter of the zone of inhibition
# Text: as §1
# Escherichia coli 2017 = experiment: as above; details: preparation III, 6.6 μg antibiotic/disc, strain resistance: --, read-out: diameter of the zone of inhibition
# Text: as §1
# Escherichia coli 2482 = experiment: as above; details: preparation III, 6.6 μg antibiotic/disc, strain resistance: --, read-out: diameter of the zone of inhibition
# Text: as §1
# Escherichia coli 2964 = experiment: as above; details: preparation III, 6.6 μg antibiotic/disc, strain resistance: P, C (penicillins, cephalosporins), read-out: diameter of the zone of inhibition
# Text: as §1
# Klebsiella 2921 = experiment: as above; details: preparation III, 6.6 μg antibiotic/disc, strain resistance: P (penicillins), read-out: diameter of the zone of inhibition
# Text: as §1
# Klebsiella 2922 = experiment: as above; details: preparation III, 6.6 μg antibiotic/disc, strain resistance: P (penicillins), read-out: diameter of the zone of inhibition
# Text: as §1
# Proteus mirabilis 2830 = experiment: as above; details: preparation III, 6.6 μg antibiotic/disc, strain resistance: P, C (penicillins, cephalosporins), read-out: diameter of the zone of inhibition
# Text: as §1
# Proteus morganii 2833 = experiment: as above; details: Morganella morganii, preparation III, 6.6 μg antibiotic/disc, strain resistance: P, C (penicillins, cephalosporins), read-out: diameter of the zone of inhibition
# Text: as §1
# [3] = tested on: Pseudomonas aeruginosa 2616; experiment: as above; details: preparation III, 6.6 μg antibiotic/disc, strain resistance: P, C (penicillins, cephalosporins), read-out: diameter of the zone of inhibition
# Text: as §1
# [4] = tested on: Pseudomonas aeruginosa 2824; experiment: as above; details: preparation III, 6.6 μg antibiotic/disc, strain resistance: P, C (penicillins, cephalosporins), read-out: diameter of the zone of inhibition
# Text: as §1
# [5] = tested on: Pseudomonas aeruginosa 3210; experiment: as above; details: preparation III, 6.6 μg antibiotic/disc, strain resistance: P, C (penicillins, cephalosporins), read-out: diameter of the zone of inhibition
# Text: as §1
# Serratia 2840 = experiment: as above; details: preparation III, 6.6 μg antibiotic/disc, strain resistance: P, C (penicillins, cephalosporins), read-out: diameter of the zone of inhibition
# Text: as §1
# [6] = tested on: Staphylococcus aureus 2314; experiment: as above; details: preparation III, 6.6 μg antibiotic/disc, strain resistance: P (penicillins), read-out: diameter of the zone of inhibition
# Text: as §1
# [7] = tested on: Staphylococcus aureus 2985; experiment: as above; details: preparation III, 6.6 μg antibiotic/disc, strain resistance: --, read-out: diameter of the zone of inhibition
# Text: as §1
# [8] = tested on: Streptococcus faecalis 755; experiment: as above; details: Enterococcus faecalis, preparation III, 6.6 μg antibiotic/disc, strain resistance: --, read-out: diameter of the zone of inhibition
# Text: as §1
# [9] = tested on: Staphylococcus aureus ATCC 6538P; experiment: disc-diffusion assay of antibacterial activity (5 ml plates); details: estimated or calculated potency; one unit = same inhibition as 1 μg. of cephalothin/ml.
# Experimental: Assays of antibacterial activity are run according to the following disc-diffusion procedure unless otherwise indicated. The assay plates are prepared in the following manner. An overnight growth of the assay organism, Staphylococcus aureus ATCC 6538P, in nutrient broth plus 0.2% yeast extract is diluted with nutrient broth plus 0.2% yeast extract to a suspension having 55% transmittance at a wavelength of 660 mμ. This suspension is added to Difco nutrient agar supplemented with 2.0 g./l. Difco yeast extract, at 47° C. to 48° C., to make a composition containing 33.2 ml. of the suspension per liter of agar. Five ml. of this suspension is poured into petri dishes of 85 mm. diameter, and these plates are chilled and held at 4° C. until used (5 day maximum).
# Samples of the antibiotic to be assayed are diluted to an appropriate concentration in phosphate buffer at pH 7. Filter-paper discs, 0.5-inch in diameter, are dipped into the test solution and placed on the surface of the assay plate; two discs for each sample are normally placed on one plate opposite to one another. The plates are incubated overnight at 37° C. and the zone of inhibition is measured as mm. diameter. The zone of inhibition measured in mm. determines relative potencies or, when compared with a purified reference standard such as cephalothin, the potency of antibiotic in units/ml. The unit of activity reported in Examples 4 through 7 is based on cephalothin standard solutions of 8, 4, 2 and 1 μg./ml. One unit is defined as the amount which calculates to produce the same inhibition as 1 μg. of cephalothin/ml. that zone of inhibition being between 16 and 21 mm. diameter.
compound,measurement,setting,value
"C[C@@H](O)[C@H]1C(=O)N2C(C(=O)O)=C(SCCN)C[C@H]12 [III, thienamycin]",zone of inhibition at 6.6 µg/disc,Bacillus subtilis 964,46 mm
same,zone of inhibition at 6.6 µg/disc,[1],25 mm
same,zone of inhibition at 6.6 µg/disc,[2],27.5 mm
same,zone of inhibition at 6.6 µg/disc,Escherichia coli 2017,28 mm
same,zone of inhibition at 6.6 µg/disc,Escherichia coli 2482,27 mm
same,zone of inhibition at 6.6 µg/disc,Escherichia coli 2964,27 mm
same,zone of inhibition at 6.6 µg/disc,Klebsiella 2921,25 mm
same,zone of inhibition at 6.6 µg/disc,Klebsiella 2922,25 mm
same,zone of inhibition at 6.6 µg/disc,Proteus mirabilis 2830,21 mm
same,zone of inhibition at 6.6 µg/disc,Proteus morganii 2833,20 mm
same,zone of inhibition at 6.6 µg/disc,[3],20.5 mm
same,zone of inhibition at 6.6 µg/disc,[4],30 mm
same,zone of inhibition at 6.6 µg/disc,[5],25 mm
same,zone of inhibition at 6.6 µg/disc,Serratia 2840,23 mm
same,zone of inhibition at 6.6 µg/disc,[6],38 mm
same,zone of inhibition at 6.6 µg/disc,[7],38 mm
same,zone of inhibition at 6.6 µg/disc,[8],24 mm
same,potency (estimated / calculated),[9],"~31,000 units/mg."
